Laboratory results from DBAASP.
Values after ≈ are worked out from the molar mass of the structure shown. Values joined by “and” are separate entries in the source; they are usually repeats but may differ in a detail not shown here. Identical values can stand only once. Values belong to the molecule of their own block, whether it stands above or below them.

How the values were obtained:
Assay in all cases: ≥ marks a high value that may be exact or a test limit, other limits are often not marked, values filed in µg/mL are converted to µM
[1] = tested on: Bacillus subtilis PS832
[2] = tested on: Staphylococcus epidermidis ATCC 12228
[3] = tested on: Klebsiella aerogenes ATCC 13048
[4] = tested on: Escherichia coli DL7
[5] = tested on: Enterococcus gallinarum
[6] = tested on: Enterococcus faecium
[7] = tested on: Salmonella typhimurium KCTC 2370
[8] = tested on: Saccharomyces cerevisiae ATCC 44774
[9] = tested on: Enterococcus casseliflavus
[10] = tested on: Bacillus subtilis KCTC 3038
[11] = tested on: Staphylococcus aureus
[12] = tested on: Enterococcus faecalis ATCC 29212
[13] = tested on: Staphylococcus aureus ATCC 700699
[14] = tested on: Pseudomonas aeruginosa ATCC 27853
[15] = tested on: Staphylococcus aureus ATCC 29213
[16] = tested on: Klebsiella pneumoniae ATCC 700603
[17] = tested on: Staphylococcus aureus ATCC 33591
[18] = tested on: Escherichia coli ATCC 25922
[19] = tested on: Pseudomonas aeruginosa CCARM 2095
[20] = tested on: Acinetobacter baumannii CCARM 12037
[21] = tested on: Acinetobacter baumannii CCARM 12036
[22] = tested on: Salmonella typhimurium CCARM 8009
[23] = tested on: Staphylococcus aureus CCARM 3089
[24] = tested on: Acinetobacter baumannii CCARM 12035
[25] = tested on: Pseudomonas aeruginosa CCARM 2003
[26] = tested on: Escherichia coli KCTC 1682
[27] = tested on: Escherichia coli CCARM 1229
[28] = tested on: Staphylococcus aureus CCARM 3126
[29] = tested on: Bacillus subtilis KCTC 1022
[30] = tested on: Escherichia coli KCTC 2571
[31] = tested on: Pseudomonas aeruginosa KCTC 1637
[32] = tested on: Staphylococcus aureus KCTC 1916
[33] = tested on: Bacillus subtilis KCTC 1021
[34] = tested on: Pseudomonas aeruginosa CCARM 2163
[35] = tested on: Bacillus subtilis KCTC 3068
[36] = tested on: Staphylococcus aureus CCARM 3090
[37] = tested on: Escherichia coli CCARM 1238
[38] = tested on: Staphylococcus epidermidis KCTC 1917
[39] = tested on: Pseudomonas aeruginosa CCARM 2002
[40] = tested on: Pseudomonas aeruginosa KCTC 2513
[41] = tested on: Salmonella typhimurium KCTC 1926
[42] = tested on: Salmonella typhimurium CCARM 8007
[43] = tested on: Staphylococcus aureus KCTC 3881
[44] = tested on: Salmonella typhimurium CCARM 8003
[45] = tested on: Pseudomonas aeruginosa KCTC 2004
[46] = tested on: Staphylococcus aureus CCARM 3108
[47] = tested on: Staphylococcus aureus CCARM 3114
[48] = tested on: Escherichia coli KCTC 2593
[49] = tested on: Acinetobacter baumannii CCARM 12005
[50] = tested on: Staphylococcus aureus KCTC 1621

MIC [1]: 0.125 µM and 0.06 µM | MIC [2]: 1 µM (≈ 1.77 µg/mL) | MIC [3]: ≥ 32 µM | MIC [4]: 0.125 µM and 0.06 µM
SMILES: CC(C)C[C@H](NC(=O)[C@H](CCCCN)NC(=O)[C@H](C)NC(=O)[C@H](CC(C)C)NC(=O)[C@H](CCCCN)NC(=O)[C@H](CCCCN)NC(=O)[C@H](C)NC(=O)[C@H](CC(C)C)NC(=O)[C@H](CCCCN)NC(=O)[C@H](C)NC(=O)[C@H](CC(C)C)NC(=O)[C@H](CCCCN)NC(=O)[C@H](Cc1cnc[nH]1)NC(=O)CNC(=O)CN)C(=O)N[C@@H](C)C(=O)N[C@@H](CCCCN)C(N)=O [GGHKLAKLAKKLAKLAK]

MIC [5]: 1.06 µM (≈ 2 µg/mL) | MIC [6]: 1.06 µM (≈ 2 µg/mL) | MIC [7]: 2.12 µM (≈ 4 µg/mL) | MIC [8]: 2.12 µM (≈ 4 µg/mL) | MIC [9]: 1.06 µM (≈ 2 µg/mL) | MIC [10]: 1.06 µM (≈ 2 µg/mL) | MIC [11]: 1.5 µM (≈ 2.83 µg/mL) | MIC [12]: 1.06 µM (≈ 2 µg/mL)
SMILES: CC[C@H](C)[C@H](NC(=O)[C@H](CCCCN)NC(=O)[C@H](CCC(N)=O)NC(=O)[C@H](CCCCN)NC(=O)[C@@H](NC(=O)[C@@H](NC(=O)[C@H](CCC(N)=O)NC(=O)[C@@H](NC(=O)[C@@H](NC(=O)[C@@H]1CCCN1C(=O)[C@H](CCCN=C(N)N)NC(=O)[C@@H](NC(=O)[C@@H](NC(=O)[C@@H](N)CCCN=C(N)N)[C@@H](C)CC)[C@@H](C)CC)[C@@H](C)CC)[C@@H](C)CC)[C@@H](C)CC)[C@@H](C)CC)C(=O)N[C@@H](CCCN=C(N)N)C(=O)O [RIIRPIIQIIKQKIR]

MIC [13]: ≥ 100 µM | MIC [14]: > 100 µM | MIC [15]: > 100 µM | MIC [16]: > 100 µM | MIC [17]: ≥ 100 µM | MIC [18]: 100 µM (≈ 249 µg/mL)
SMILES: CC[C@H](C)[C@H](NC(=O)[C@H](CC(=O)O)NC(=O)[C@H](CCCCN)NC(=O)[C@H](C)NC(=O)[C@H](C)NC(=O)CNC(=O)[C@H](CCCCN)NC(=O)[C@H](CC(C)C)NC(=O)[C@@H](NC(=O)[C@H](CC(=O)O)NC(=O)[C@@H](NC(=O)[C@@H](NC(=O)CN)C(C)C)C(C)C)[C@@H](C)CC)C(=O)N[C@@H](C)C(=O)NCC(=O)N[C@@H](Cc1cnc[nH]1)C(=O)N[C@@H](CC(C)C)C(=O)N[C@@H](C)C(=O)N[C@@H](CO)C(=O)N[C@@H](CCCCN)C(=O)N[C@H](C(=O)N[C@@H](CCSC)C(=O)N[C@@H](CC(N)=O)C(=O)N[C@@H](C)C(=O)N[C@@H](CC(C)C)C(N)=O)C(C)C [GVVDILKGAAKDIAGHLASKVMNAL]

MIC [19]: 4 µM (≈ 10.2 µg/mL) | MIC [20]: 4 µM (≈ 10.2 µg/mL) | MIC [21]: 4 µM (≈ 10.2 µg/mL) | MIC [22]: 16 µM (≈ 40.8 µg/mL) | MIC [23]: 16 µM (≈ 40.8 µg/mL) | MIC [24]: 4 µM (≈ 10.2 µg/mL) | MIC [25]: 4 µM (≈ 10.2 µg/mL) | MIC [26]: 4 µM (≈ 10.2 µg/mL) | MIC [27]: 16 µM (≈ 40.8 µg/mL) | MIC [28]: 16 µM (≈ 40.8 µg/mL) | MIC [29]: 1 µM (≈ 2.55 µg/mL) | MIC [30]: 4 µM (≈ 10.2 µg/mL) | MIC [31]: 8 µM (≈ 20.4 µg/mL) | MIC [32]: 4 µM (≈ 10.2 µg/mL) | MIC [33]: 4 µM (≈ 10.2 µg/mL) | MIC [34]: 4 µM (≈ 10.2 µg/mL) | MIC [35]: 4 µM (≈ 10.2 µg/mL) | MIC [36]: 16 µM (≈ 40.8 µg/mL) | MIC [37]: 16 µM (≈ 40.8 µg/mL) | MIC [38]: 2 µM (≈ 5.11 µg/mL) | MIC [39]: 4 µM (≈ 10.2 µg/mL) | MIC [40]: 8 µM (≈ 20.4 µg/mL) | MIC [41]: 8 µM (≈ 20.4 µg/mL) | MIC [42]: 16 µM (≈ 40.8 µg/mL) | MIC [43]: 4 µM (≈ 10.2 µg/mL) | MIC [44]: 16 µM (≈ 40.8 µg/mL) | MIC [45]: 8 µM (≈ 20.4 µg/mL) | MIC [46]: 16 µM (≈ 40.8 µg/mL) | MIC [47]: 16 µM (≈ 40.8 µg/mL) | MIC [48]: 2 µM (≈ 5.11 µg/mL) | MIC [49]: 4 µM (≈ 10.2 µg/mL) | MIC [50]: 4 µM (≈ 10.2 µg/mL)
SMILES: CC[C@H](C)[C@H](NC(=O)CNC(=O)[C@H](CCCN=C(N)N)NC(=O)[C@H](CCCCN)NC(=O)[C@@H](NC(=O)[C@H](Cc1cnc[nH]1)NC(=O)[C@H](Cc1cnc[nH]1)NC(=O)[C@H](Cc1ccccc1)NC(=O)[C@@H](N)Cc1ccccc1)[C@@H](C)CC)C(=O)N[C@H](C(=O)N[C@@H](Cc1cnc[nH]1)C(=O)N[C@H](C(=O)NCC(=O)N[C@@H](CCCCN)C(=O)N[C@H](C(=O)N[C@H](C(=O)N[C@@H](Cc1cnc[nH]1)C(=O)N[C@@H](CCCN=C(N)N)C(=O)N[C@@H](CC(C)C)C(=O)N[C@H](C(=O)N[C@H](C(=O)NCC(=O)O)[C@@H](C)O)C(C)C)[C@@H](C)CC)[C@@H](C)O)C(C)C)C(C)C [FFHHIKRGIVHVGKTIHRLVTG]
